Test systems include EKVX NSCLC; NCI-H460 lung; SNB-19 CNS; SW-620 colon; SK-MEL-28 melanoma; SK-MEL-2 melanoma; HCT-15 colon; HOP-62 NSCLC; MDA-MB-435; K-562 leukemia.
Common to all, as to experiment: NCI-60 cell line screen, 48 h

Several values for one entry are separate records, joined by “and”; a condition that tells them apart may be missing. Equal entries are not always repeated.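 In this assay, cells in 96-well plates receive the compound at five concentrations for 48 hours. Endpoints are linearly interpolated between the surrounding concentrations. The concentration for 50% growth inhibition is given as GI50. TGI is the concentration that stops growth completely.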

For 11 compounds, GI50 and TGI results are on record in PubChem BioAssay (NCI).

Take `CC(C)=CCCC(C)c1ccc(C)c2c1OCN(CC1CCNCC1)C2` (stereo unspecified): the GI50 in the experiment on EKVX NSCLC was 20.7 µM; in the experiment on NCI-H460 lung, 5.36 µM; with SNB-19 CNS it was 14 µM; in the experiment with SW-620 colon, 9.87 µM; in the experiment on SK-MEL-28 melanoma, 15.7 µM; in the experiment on SK-MEL-2 melanoma, 18.2 µM. The GI50 is 6.51 µM with HCT-15 colon, 14.8 µM with HOP-62 NSCLC, 6.48 µM in the experiment on MDA-MB-435 and 2.68 µM in the experiment with K-562 leukemia. Further, the TGI in the experiment on EKVX NSCLC amounted to 66.9 µM; with NCI-H460 lung it was 16.6 µM; with SNB-19 CNS it was 29.4 µM; in the experiment with SW-620 colon, 23.1 µM; with SK-MEL-28 melanoma, 29.3 µM; in the experiment with SK-MEL-2 melanoma it was 35.5 µM. For the same compound, the TGI in the experiment on HCT-15 colon stood at 21.1 µM; with HOP-62 NSCLC, 28.7 µM; with MDA-MB-435, 20.9 µM; in the experiment with K-562 leukemia it was 8.44 µM.

Take `COc1cc(/C=C/C(=O)CC(=O)/C=C/c2cc(OC)c(OC)c(OC)c2)cc(OC)c1OC`: the GI50 in the experiment with EKVX NSCLC was 3.59 µM; in the experiment on NCI-H460 lung, 3.94 µM; with SNB-19 CNS, 4.36 µM; with SW-620 colon, 2.56 µM; with SK-MEL-28 melanoma, 4.24 µM; in the experiment on SK-MEL-2 melanoma, 5.87 µM. Moreover, the GI50 in the experiment on HCT-15 colon was 3.32 µM; in the experiment with HOP-62 NSCLC, 4.45 µM; in the experiment on MDA-MB-435, 2.52 µM; in the experiment with K-562 leukemia, 2.82 µM. Also, the TGI is 40.9 µM in the experiment with EKVX NSCLC; 18.4 µM with NCI-H460 lung; above 100 µM with SNB-19 CNS; 11.3 µM in the experiment with SW-620 colon; 32.8 µM in the experiment with SK-MEL-28 melanoma; 78.8 µM with SK-MEL-2 melanoma. Also, the TGI in the experiment with HCT-15 colon was 12.7 µM; in the experiment with HOP-62 NSCLC it was 27.7 µM; in the experiment with MDA-MB-435 it was 7.23 µM; with K-562 leukemia, above 100 µM.

Consider `CC1=C2[C@@H](CC1)[C@]1(C)O[C@@](C3CCCCC3)(C[C@H]1OC(=O)CO)[C@H]2OC(=O)/C=C/c1ccccc1`, for which the GI50 was 5.83 µM with EKVX NSCLC; 6.35 µM in the experiment on NCI-H460 lung; 13.1 µM in the experiment on SNB-19 CNS; 9.26 µM with SW-620 colon; 9.53 µM with SK-MEL-28 melanoma; 11.5 µM in the experiment with SK-MEL-2 melanoma. Besides, the GI50 in the experiment on HCT-15 colon was 5.23 µM; in the experiment with HOP-62 NSCLC, 12 µM; in the experiment on MDA-MB-435, 8.65 µM; with K-562 leukemia, 7.14 µM. Moreover, the TGI in the experiment with EKVX NSCLC came to 19.5 µM; with NCI-H460 lung, 17.8 µM; in the experiment on SNB-19 CNS, 31.4 µM; in the experiment with SW-620 colon, 25.1 µM; in the experiment on SK-MEL-28 melanoma, 27.1 µM; in the experiment on SK-MEL-2 melanoma, 27.9 µM. Also, the TGI was 15.7 µM in the experiment with HCT-15 colon, 25.5 µM in the experiment on HOP-62 NSCLC, 23.6 µM in the experiment with MDA-MB-435 and 32.1 µM with K-562 leukemia.

On to `CC(=O)c1c(C)[nH]c(-c2nc3ccc(N4CCN(C)CC4)cc3[nH]2)c1-c1ccc(OCC2CCOCC2)cc1`, for which the GI50 in the experiment on EKVX NSCLC is 8.36 µM; in the experiment on NCI-H460 lung it was 2.39 µM; with SNB-19 CNS, 2.2 µM; in the experiment with SW-620 colon it was 1.68 µM; with SK-MEL-28 melanoma, 1.62 µM; in the experiment on SK-MEL-2 melanoma, 2 µM. Moreover, the GI50 in the experiment on HCT-15 colon was 0.456 µM; with HOP-62 NSCLC, 0.524 µM; in the experiment with MDA-MB-435 it was 0.477 µM; in the experiment on K-562 leukemia, 0.37 µM. Moreover, the TGI in the experiment on EKVX NSCLC amounted to 37.2 µM; with NCI-H460 lung, 19.4 µM; in the experiment on SNB-19 CNS, 25.1 µM; with SW-620 colon it was 18 µM; in the experiment on SK-MEL-28 melanoma it was 17 µM; in the experiment on SK-MEL-2 melanoma, 16.5 µM. In addition, the TGI was determined as 5.8 µM with HCT-15 colon, 14.7 µM in the experiment with HOP-62 NSCLC, 12.2 µM with MDA-MB-435 and 9.08 µM in the experiment with K-562 leukemia.

With `CC(C)c1ccc(C(=O)Nc2nc3ccc(O)cc3s2)cc1`, the GI50 in the experiment with EKVX NSCLC was 2.34 µM; in the experiment on NCI-H460 lung it was 0.47 µM; with SNB-19 CNS, 8.27 µM; in the experiment with SW-620 colon, 0.552 µM; with SK-MEL-28 melanoma it was 0.628 µM; with SK-MEL-2 melanoma, 18 µM. For the same compound, the GI50 in the experiment on HCT-15 colon is 0.274 µM; in the experiment on HOP-62 NSCLC, 1.74 µM; in the experiment on MDA-MB-435, 0.443 µM; in the experiment on K-562 leukemia, 0.298 µM. Besides, the TGI in the experiment on EKVX NSCLC is above 100 µM; in the experiment on NCI-H460 lung it was 10.9 µM; in the experiment on SNB-19 CNS, above 100 µM; in the experiment with SW-620 colon, above 100 µM; in the experiment with SK-MEL-28 melanoma it was above 100 µM; with SK-MEL-2 melanoma it was above 100 µM. The TGI is above 100 µM in the experiment on HCT-15 colon, above 100 µM in the experiment on HOP-62 NSCLC, above 100 µM in the experiment with MDA-MB-435 and 28.6 µM with K-562 leukemia.

In the case of `O=[N+]([O-])c1cc(Cl)c(Cl)c([N+](=O)[O-])c1Cl`, the GI50 in the experiment with EKVX NSCLC is 2.23 µM; in the experiment on NCI-H460 lung, 3.3 µM; in the experiment with SNB-19 CNS, 6.55 µM; with SW-620 colon, 0.763 µM; in the experiment with SK-MEL-28 melanoma it was 1.74 µM; with SK-MEL-2 melanoma, 1.8 µM. Also, the GI50 was 1 µM in the experiment with HCT-15 colon, 1.82 µM in the experiment with HOP-62 NSCLC, 1.7 µM in the experiment with MDA-MB-435 and 0.353 µM in the experiment with K-562 leukemia. The TGI is 5.32 µM in the experiment on EKVX NSCLC; above 100 µM with NCI-H460 lung; 22.6 µM in the experiment on SNB-19 CNS; 3.36 µM with SW-620 colon; 3.14 µM with SK-MEL-28 melanoma; 3.37 µM in the experiment on SK-MEL-2 melanoma. For the same compound, the TGI with HCT-15 colon was 2.84 µM; with HOP-62 NSCLC it was 3.25 µM; in the experiment on MDA-MB-435, 3.46 µM; with K-562 leukemia, above 100 µM.

Take `CO[C@@H]1/C=C\C=C(/C)C(=O)NC2=CC(=O)C(NCCN(C)C)=C(C[C@@H](C)C[C@@H](OC)[C@@H](O)[C@H](C)/C=C(\C)[C@H]1OC(N)=O)C2=O`: the GI50 is 0.641 µM and 0.145 µM in the experiment with EKVX NSCLC; below 0.0117 µM in the experiment on NCI-H460 lung; < 0.01 µM and 0.0487 µM with SW-620 colon; 0.0859 µM in the experiment with HOP-62 NSCLC; below 0.0124 µM in the experiment with MDA-MB-435; 0.0158 µM with K-562 leukemia. Also, the TGI is 11.1 µM and 7.59 µM in the experiment with EKVX NSCLC; 3.61 µM and 3.76 µM in the experiment on NCI-H460 lung; 7.99 µM and 15.5 µM with SNB-19 CNS; 20.6 µM in the experiment on SW-620 colon; > 100 µM and 32.4 µM with SK-MEL-28 melanoma; 21.3 µM and 12.3 µM with SK-MEL-2 melanoma. Further, the TGI is 4.06 µM and 10.9 µM with HCT-15 colon; 17 µM and 19.1 µM with HOP-62 NSCLC; 3.1 µM and 1.32 µM in the experiment with MDA-MB-435; 3.22 µM and 13.6 µM with K-562 leukemia.

Consider `C=C1C(=O)O[C@H]2[C@H]1CC/C(CNC(=O)c1cc3cc(OC)ccc3[nH]1)=C\CC[C@@]1(C)O[C@@H]21`, for which the GI50 is 1.28 µM in the experiment on EKVX NSCLC; 5.51 µM with NCI-H460 lung; 7.94 µM in the experiment on SNB-19 CNS; 1.15 µM in the experiment on SW-620 colon; 1.62 µM in the experiment with SK-MEL-28 melanoma; 2.18 µM with SK-MEL-2 melanoma. The GI50 was 0.825 µM with HCT-15 colon, 3.22 µM with HOP-62 NSCLC, 1.73 µM in the experiment with MDA-MB-435 and 2.56 µM with K-562 leukemia. For the same compound, the TGI in the experiment with EKVX NSCLC stood at 3 µM; in the experiment on NCI-H460 lung it was 20 µM; with SNB-19 CNS, 21.7 µM; with SW-620 colon, 2.77 µM; in the experiment on SK-MEL-28 melanoma, 4.23 µM; in the experiment on SK-MEL-2 melanoma, 5.24 µM. In addition, the TGI in the experiment on HCT-15 colon is 2.23 µM; in the experiment with HOP-62 NSCLC, 13.8 µM; with MDA-MB-435, 5.03 µM; with K-562 leukemia, 7.99 µM.

As to `O=S(=O)(NC1=NCCN1C(=S)SN1CCn2c1nsc2=S)c1ccc(Br)cc1`, the GI50 was 2.39 µM in the experiment with EKVX NSCLC; 38.9 µM with NCI-H460 lung; above 100 µM with SNB-19 CNS; 24.2 µM in the experiment with SW-620 colon; 72.5 µM with SK-MEL-28 melanoma; 18.7 µM with SK-MEL-2 melanoma. For the same compound, the GI50 in the experiment with HCT-15 colon was 31.8 µM; with HOP-62 NSCLC, 52.4 µM; in the experiment with MDA-MB-435 it was 27.6 µM; in the experiment with K-562 leukemia, 24.6 µM. The TGI was 95.1 µM with EKVX NSCLC; above 100 µM in the experiment with NCI-H460 lung; above 100 µM with SNB-19 CNS; 73 µM with SW-620 colon; above 100 µM in the experiment with SK-MEL-28 melanoma; 46.4 µM in the experiment on SK-MEL-2 melanoma. Besides, the TGI with HCT-15 colon is above 100 µM; in the experiment with HOP-62 NSCLC, above 100 µM; with MDA-MB-435 it was above 100 µM; in the experiment on K-562 leukemia, 83.2 µM.

Take `COc1ccc(N2C(=O)CC(Cl)C2=O)cc1` (stereo unspecified): the TGI was above 100 µM in the experiment with EKVX NSCLC; above 100 µM in the experiment on NCI-H460 lung; above 100 µM with SNB-19 CNS; 35.2 µM in the experiment on SW-620 colon; 30.2 µM with SK-MEL-28 melanoma; above 100 µM in the experiment with SK-MEL-2 melanoma. Moreover, the TGI in the experiment with HCT-15 colon is 33.2 µM; in the experiment on HOP-62 NSCLC, above 100 µM; with MDA-MB-435 it was above 100 µM; with K-562 leukemia it was 17.5 µM.

Regarding `COc1cc(OC)cc(C2CC(=O)Nc3c2c(C)nn3-c2nc3ccccc3[nH]2)c1` (stereo unspecified), the GI50 in the experiment on EKVX NSCLC is 3.31 µM; with NCI-H460 lung, 2.58 µM; in the experiment on SNB-19 CNS it was 4.13 µM; in the experiment on SW-620 colon, 3.31 µM; in the experiment with SK-MEL-28 melanoma it was 3.64 µM; in the experiment on SK-MEL-2 melanoma, 2.42 µM. For the same compound, the GI50 is 3.73 µM in the experiment on HCT-15 colon, 2.65 µM in the experiment with HOP-62 NSCLC, 2.76 µM in the experiment with MDA-MB-435 and 3.15 µM in the experiment on K-562 leukemia. For the same compound, the TGI with EKVX NSCLC is above 100 µM; with NCI-H460 lung, 6.1 µM; in the experiment on SNB-19 CNS, above 100 µM; in the experiment with SW-620 colon, 12.9 µM; in the experiment with SK-MEL-28 melanoma it was 70 µM; in the experiment with SK-MEL-2 melanoma, 5.88 µM. The TGI with HCT-15 colon is above 100 µM; in the experiment on HOP-62 NSCLC, 6.62 µM; with MDA-MB-435, 7.88 µM; with K-562 leukemia, above 100 µM.
